The values below come from article PMC10457016 (Journal of fluorine chemistry, 2023).

SMILES strings stand for the structures. Converted amounts (≈) assume the structure as drawn. Read-outs that look alike come from different tables or passages of the source.

For one series, the target named is T1, human sEH (Homo sapiens, UniProt P34913).
T1 sequence (P34913 1-555): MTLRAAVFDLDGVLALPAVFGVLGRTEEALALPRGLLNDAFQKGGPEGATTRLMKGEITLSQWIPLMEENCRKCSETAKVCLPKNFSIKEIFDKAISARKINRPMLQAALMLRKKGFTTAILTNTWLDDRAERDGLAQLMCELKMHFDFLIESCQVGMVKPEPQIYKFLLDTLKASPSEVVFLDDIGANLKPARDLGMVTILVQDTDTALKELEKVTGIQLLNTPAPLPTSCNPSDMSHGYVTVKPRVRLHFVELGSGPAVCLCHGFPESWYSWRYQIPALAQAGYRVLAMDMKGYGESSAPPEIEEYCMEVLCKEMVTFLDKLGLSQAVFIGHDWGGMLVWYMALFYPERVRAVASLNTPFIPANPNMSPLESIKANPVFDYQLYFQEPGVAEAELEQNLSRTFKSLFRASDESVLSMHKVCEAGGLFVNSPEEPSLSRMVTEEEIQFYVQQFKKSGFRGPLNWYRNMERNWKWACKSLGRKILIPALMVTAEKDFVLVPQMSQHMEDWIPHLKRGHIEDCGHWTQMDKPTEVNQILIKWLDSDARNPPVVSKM
Kind of series: Determination of inhibitory potency. It is filed as biochemical.

Series [1] is described as follows: Solubility in sodium phosphate buffer. It is filed as physicochemical.
[2] abbreviates: kinetic fluorescent assay, substrate 5 μM, human sEH 1 nM, means of three separate experiments.
[3] abbreviates: sodium phosphate buffer (pH 7.4, 0.1 M) containing 1% of DMSO.
Where [4] appears, read: sodium phosphate buffer, pH 7.4, aqueous buffer.

One may read the IC50 as the concentration that inhibits the measured activity by half. As a reminder, the Solubility is the dissolved amount per volume that the medium holds. High values mean much dissolved substance, low ones little dissolved substance. Take `O=C(NCc1ccn(CCF)n1)NC12CC3CC(CC(C3)C1)C2` [3a, 1-Adamantyl-3-{[1-(2-fluoroethyl)-1H-pyrazol-3-yl]methyl}urea]: inhibition at human sEH (setting [2]) was half-maximal at 0.0102 µM (IC50). Further, the Solubility in series [1] (setting [3]) is 440 to 450 µM.
The like results for `O=C(NCc1ccn(CC(F)F)n1)NC12CC3CC(CC(C3)C1)C2` [3b, 1-Adamantyl-3-{[1-(2,2-difluoroethyl)-1H-pyrazol-3-yl]methyl}urea] were, in that order, 0.012 µM and 300 to 310 µM.
In the same order, the values of `O=C(NCc1ccn(CC(F)(F)F)n1)NC12CC3CC(CC(C3)C1)C2` [3c, 1-Adamantyl-3-{[1-(2,2,2-trifluoroethyl)-1H-pyrazol-3-yl]methyl}urea] are 0.0096 µM and 390 to 400 µM.
On to `O=C(NCc1ccn(C(F)F)n1)NC12CC3CC(CC(C3)C1)C2` [3d, 1-Adamantyl-3-[(1-difluoromethyl-1H-pyrazol-3-yl)methyl]urea], for which 0.0088 µM corresponded to half-maximal inhibition against human sEH (setting [2]) (IC50). This compound also displayed a Solubility in series [1] (setting [3]) of 670 to 680 µM.
`Cn1nc(CNC(=O)NC23CC4CC(CC(C4)C2)C3)cc1C(F)(F)F` [3e, 1-Adamantyl-3-[(1-metyl-5-trifluoromethyl-1H-pyrazol-3-yl)methyl]urea] showed an IC50 on human sEH (setting [2]) of 0.0099 µM. In series [1] (setting [3]), the Solubility lay in the range of 160 to 170 µM.
In turn, `Cn1nc(CNC(=O)NC23CC4CC(CC(C4)C2)C3)c(Cl)c1Cl` [3f, 1-Adamantyl-3-[(4,5-dichloro-1-methyl-1H-pyrazol-3-yl)methyl]urea] displayed an IC50 against human sEH (setting [2]) of 0.0008 µM. Moreover, the Solubility in series [1] (setting [3]) lay within 250 to 260 µM.
As to `O=C(NCc1ccn(CCF)n1)NCC12CC3CC(CC(C3)C1)C2` [4a, 1-[(Adamantan-1-yl)methyl]-3-{[1-(2-fluoroethyl)-1H-pyrazol-3-yl]methyl}urea], the IC50 against human sEH is 0.0138 µM. The compound further had a Solubility in series [1] (setting [4]) of 650 to 660 µM (≈ 217 to 221 µg/mL).
On human sEH, `O=C(NCc1ccn(CC(F)F)n1)NCC12CC3CC(CC(C3)C1)C2` [4b, 1-[(Adamantan-1-yl)methyl]-3-{[1-(2,2-difluoroethyl)-1H-pyrazol-3-yl]methyl}urea] registered an IC50 of 0.0275 µM. Moreover, in series [1] (setting [4]), the Solubility fell in the range of 270 to 280 µM (≈ 95.2 to 98.7 µg/mL).
The compound `O=C(NCc1ccn(CC(F)(F)F)n1)NCC12CC3CC(CC(C3)C1)C2` [4c, 1-[(Adamantan-1-yl)methyl]-3-{[1-(2,2,2-trifluoroethyl)-1H-pyrazol-3-yl]methyl}urea] registered an IC50 against human sEH of 0.0073 µM. Also, the Solubility in series [1] (setting [4]) lay within 740 to 750 µM (≈ 274 to 278 µg/mL).
The like results for `O=C(NCc1ccn(C(F)F)n1)NCC12CC3CC(CC(C3)C1)C2` [4d, 1-[(Adamantan-1-yl)methyl]-3-[(1-difluoromethyl-1H-pyrazol-3-yl)methyl]urea] were, in that order, 0.015 µM and 570 to 580 µM (≈ 193 to 196 µg/mL).
At human sEH (setting [2]), `Cn1nc(CNC(=O)NCC23CC4CC(CC(C4)C2)C3)cc1C(F)(F)F` [4e, 1-[(Adamantan-1-yl)methyl]-3-[(1-metyl-5-trifluoromethyl-1H-pyrazol-3-yl)methyl]urea] gave an IC50 of 0.0225 µM. In series [1] (setting [3]), this compound yielded a Solubility of 160 to 170 µM.
As to `Cn1nc(CNC(=O)NCC23CC4CC(CC(C4)C2)C3)c(Cl)c1Cl` [4f, 1-[(Adamantan-1-yl)methyl]-3-[(4,5-dichloro-1-methyl-1H-pyrazol-3-yl)methyl]urea], the IC50 against human sEH turned out to be 0.0012 µM. The Solubility in series [1] (setting [4]) lay within 120 to 130 µM (≈ 44.6 to 48.3 µg/mL).
